Laboratory results published in patent publication US20170318812A1, “Plant and Crop Growth Regulating/Biostimulant Formulations and Methods of Use” (Arysta Lifescience North America, LLC, priority 2014, published 2017).
“And” between values parts separate entries of the source, which are not always exact repeats. Identical values can stand only once.

System: GLXMA Glycine max (Soybean)
Assay: Ipfencarbazone biostimulant effect, early post emergence foliar application, greenhouse pots, plant height: soybean
Format: in vivo
Conditions: for HEIGHT, percent of untreated check (APoC) / HEIGHT, treatment mean / HEIGHT, single plots (replicates): GLXMA BMXPOTENCIA; for Plant HEIGHT, Mean / Plant HEIGHT, single plots: Soybean BMXPOTENCIA
Source text: The original objective of this Example was to evaluate the herbicidal effect of ipfencarbazone when applied as a post emergent treatment to a range of selected crops and weeds. Unexpectedly, crop plant growth stimulation was observed. The actual species of weeds and crops are listed in the summary data tabulated below and in FIGS. 1-13. By convention each plant species has a Bayer code (5-letter name) with the scientific name for the plant referenced in FIGS. 1-13. In each Figure, each tray contains the same configuration of weeds and/or crops. In each Figure there is one replication of each treatment (six treatments in total). The top three photographs in each Figure show the Bayer Codes and bottom three photographs are aligned with the top three facilitating viewing of the same plant species. Throughout the Examples various abbreviations as conventional shorthand notation and will be appreciated by those skilled in the art. Some exemplary abbreviations include, “CV”=Co-efficient of Variation,” “LSD”=Least Significant Difference” (G/L (gram per L) AND GA/L (gram of active ingredient per L); “SC”=suspension concentrate formulation. The diluent in all treatments was water. By convention factors that are identical in all treatments (e.g. diluent and surfactant) are not listed in each treatment.
Methods: The indicated size pots (see Tables below) are filled with a specific soil, the soil properties being indicated below. The referenced crops and weeds are planted by hand in each pot. […] The experiments include six treatments each replicated three times on each crop/weed species. At a specific time after emergence each crop and weed species was treated with ipfencarbazone plus a non-ionic surfactant (NIS). In the present Example, the surfactant employed was ENERGIC™ (non-ionic surfactant). The application timing is indicated in each of the Tables (1 or 2 leaf stage) below. Ipfencarbazone plus surfactant was diluted in water and applied at a rate equivalent to about 250 L/ha. Ipfencarbazone was applied using a track sprayer. After treatment, the pots were randomized in a greenhouse. At each assessment (indicated by “days after treatment” or DAT) the height of each plant was measured. The letters next to each mean indicate the level of statistical significance.
Replications: 3, Untreated treatments: 1, Design: Randomized Complete Block (RCB), Treatment units: Treated ‘Plot’ experimental unit size, Dry Form. Unit: %, Treated ‘Plot’ experimental unit size Width: 1 meter, Treated ‘Plot’ experimental unit size Length: 1.4 meters, Application volume: 250 L/ha, Mix size: 0.15 liters, […]

[1] = 28 DA-A, 62.5 g ai/ha + Energic NIS 0.2 % v/v
[2] = 28 DA-A, 125 g ai/ha + Energic NIS 0.2 % v/v
[3] = 28 DA-A, 250 g ai/ha + Energic NIS 0.2 % v/v
[4] = 28 DA-A, 1000 g ai/ha + Energic NIS 0.2 % v/v

## CC(C)N(C(=O)n1cnn(-c2ccc(Cl)cc2Cl)c1=O)c1ccc(F)cc1F [ARY-0572-001, ipfencarbazone]
62.5 g ai/ha, 15 DA-A
  HEIGHT, percent of untreated check (APoC): (113.4%)
  HEIGHT, treatment mean: 15.0 a cm and 15.0 cm
62.5 g ai/ha, 15 DA-A, plots 102, 205, 302
  HEIGHT, single plots (replicates): 15.3 cm and 14.8 cm (2×)
62.5 g ai/ha, 28 DA-A
  HEIGHT, percent of untreated check (APoC): (146.3%)
  HEIGHT, treatment mean: 30.6a cm
125 g ai/ha, 15 DA-A
  HEIGHT, percent of untreated check (APoC): (84.9%)
  HEIGHT, treatment mean: 11.2 abc cm and 11.2 cm
125 g ai/ha, 15 DA-A, plots 103, 206, 305
  HEIGHT, single plots (replicates): 6.2 cm and 13.5 cm and 14.0 cm
125 g ai/ha, 28 DA-A
  HEIGHT, percent of untreated check (APoC): (113.8%)
  HEIGHT, treatment mean: 23.8 ab cm
250 g ai/ha, 15 DA-A
  HEIGHT, percent of untreated check (APoC): (71.8%)
  HEIGHT, treatment mean: 9.5 bcd cm and 9.5 cm
250 g ai/ha, 15 DA-A, plots 104, 201, 306
  HEIGHT, single plots (replicates): 8.3 cm and 10.8 cm and 9.3 cm
250 g ai/ha, 28 DA-A
  HEIGHT, percent of untreated check (APoC): (87.8%)
  HEIGHT, treatment mean: 18.3 bc cm
500 g ai/ha, 15 DA-A
  HEIGHT, percent of untreated check (APoC): (45.4%)
  HEIGHT, treatment mean: 6.0 d cm and 6.0 cm
500 g ai/ha, 15 DA-A, plots 105, 202, 301
  HEIGHT, single plots (replicates): 8.0 cm and 1.3 cm and 8.7 cm
500 g ai/ha, 28 DA-A
  HEIGHT, percent of untreated check (APoC): (63.3%)
  HEIGHT, treatment mean: 13.2 c cm
1000 g ai/ha, 15 DA-A
  HEIGHT, percent of untreated check (APoC): (65.5%)
  HEIGHT, treatment mean: 8.7 cd cm and 8.7 cm
1000 g ai/ha, 15 DA-A, plots 106, 203, 304
  HEIGHT, single plots (replicates): 6.7 cm and 10.0 cm and 9.3 cm
1000 g ai/ha, 28 DA-A
  HEIGHT, percent of untreated check (APoC): (71.3%)
  HEIGHT, treatment mean: 14.9 bc cm
[1]
  Plant HEIGHT, Mean: 30.6 cm
  Plant HEIGHT, single plots: 32.7 cm and 29.3 cm and 29.7 cm
[2]
  Plant HEIGHT, Mean: 23.8 cm
  Plant HEIGHT, single plots: 20.7 cm and 22.7 cm and 28.0 cm
[3]
  Plant HEIGHT, Mean: 18.3 cm
  Plant HEIGHT, single plots: 20.3 cm and 21.7 cm and 13.0 cm
28 DA-A, 500 g ai/ha + Energic NIS 0.2 % v/v
  Plant HEIGHT, Mean: 13.2 cm
[4]
  Plant HEIGHT, Mean: 14.9 cm
  Plant HEIGHT, single plots: 9.0 cm and 18.0 cm and 17.7 cm
